Experimental data from PubChem BioAssay (NCI).
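Tested at 5 concentrations; 48 h exposure; 96-well plates; endpoints linearly interpolated, else capped at highest concentration. TGI marks complete inhibition of growth.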

Experiments:
Test in all cases: NCI tumour cell line growth inhibition, 48 h
[1] = test system: NCI-H226 lung
[2] = test system: MDA-MB-435
[3] = test system: OVCAR-4 ovarian
[4] = test system: HT29 colon
[5] = test system: ACHN renal
[6] = test system: OVCAR-8 ovarian
[7] = test system: SNB-19 CNS
[8] = test system: UACC-62 melanoma
[9] = test system: DU-145 prostate
[10] = test system: K-562 leukemia
[11] = test system: UO-31 renal
[12] = test system: HL-60(TB) leukemia
[13] = test system: MOLT-4 leukemia
[14] = test system: TK-10 renal
[15] = test system: HS 578T breast
[16] = test system: IGROV1 ovarian
[17] = test system: COLO 205 colon
[18] = test system: HCT-15 colon
[19] = test system: SK-MEL-28 melanoma
[20] = test system: SN12C renal
[21] = test system: KM12 colon
[22] = test system: MALME-3M melanoma
[23] = test system: NCI/ADR-RES ovarian
[24] = test system: MDA-N
[25] = test system: UACC-257 melanoma
[26] = test system: U251 CNS
[27] = test system: SR leukemia
[28] = test system: MCF7 breast
[29] = test system: RXF 393 renal
[30] = test system: CCRF-CEM leukemia
[31] = test system: A498 renal
[32] = test system: OVCAR-5 ovarian
[33] = test system: PC-3 prostate
[34] = test system: NCI-H23 lung
[35] = test system: HCT-116 colon
[36] = test system: NCI-H460 lung
[37] = test system: NCI-H522 lung
[38] = test system: HOP-62 NSCLC
[39] = test system: SF-268 CNS
[40] = test system: T-47D breast
[41] = test system: M14 melanoma
[42] = test system: HCC-2998 colon
[43] = test system: SK-OV-3 ovarian
[44] = test system: LOX IMVI melanoma
[45] = test system: OVCAR-3 ovarian
[46] = test system: MDA-MB-231 breast
[47] = test system: SK-MEL-5 melanoma
[48] = test system: BT-549 breast
[49] = test system: SW-620 colon
[50] = test system: 786-0 renal
[51] = test system: SF-539 CNS
[52] = test system: RPMI-8226 leukemia
[53] = test system: SF-295 CNS
[54] = test system: A549 NSCLC
[55] = test system: SNB-75 CNS
[56] = test system: SK-MEL-2 melanoma
[57] = test system: CAKI-1 renal

In the case of `CC[N+]1(C)CCC(O)(c2ccc(Cl)cc2)C(C(=O)c2ccc(Cl)cc2)C1` (centres undefined), the TGI [1] was 48.3 µM, the TGI [2] was 40.6 µM and the TGI [3] was 78.4 µM. For the same compound, the TGI [4] was 94.4 µM, the TGI [5] was 33.5 µM and the TGI [6] was greater than 100 µM. The TGI [7] was 31.8 µM, the TGI [8] was 27.9 µM and the TGI [9] was 34.4 µM. For the same compound, the TGI [10] was 17.2 µM, the TGI [11] was 34.5 µM and the TGI [12] was greater than 100 µM. It also gave a TGI [13] of 41.2 µM, a TGI [14] of 34.1 µM and a TGI [15] of 38.3 µM. It also gave a TGI [16] of 47.9 µM, a TGI [17] of 23.8 µM and a TGI [18] of 41.3 µM. It also gave a TGI [19] of 29.4 µM, a TGI [20] of 37.5 µM and a TGI [21] of 31.7 µM. It also gave a TGI [22] of 25.6 µM, a TGI [23] of 57.1 µM and a TGI [24] of 41.3 µM. The TGI [25] was 61 µM, the TGI [26] was 56.8 µM and the TGI [27] was 36.4 µM. It also gave a TGI [28] of 2.71 µM, a TGI [29] of 27.4 µM and a TGI [30] of 19.7 µM. It also gave a TGI [31] of 48.3 µM, a TGI [32] of 33.1 µM and a TGI [33] of 33 µM. For the same compound, the TGI [34] was 38.5 µM, the TGI [35] was 46.7 µM and the TGI [36] was 63.8 µM. It also gave a TGI [37] of 3.51 µM, a TGI [38] of 46.8 µM and a TGI [39] of 58.8 µM. For the same compound, the TGI [40] was 17.8 µM, the TGI [41] was 36.2 µM and the TGI [42] was 36.3 µM. For the same compound, the TGI [43] was 27.7 µM, the TGI [44] was 25.6 µM and the TGI [45] was 43.3 µM. It also gave a TGI [46] of 40.5 µM.
For `CC(NS(C)(=O)=O)c1ccccc1` (centres undefined), the TGI [1] was greater than 100 µM, the TGI [47] was greater than 100 µM and the TGI [2] was greater than 100 µM. It also gave a TGI [3] greater than 100 µM, a TGI [4] greater than 100 µM and a TGI [6] greater than 100 µM. It also gave a TGI [7] greater than 100 µM, a TGI [8] greater than 100 µM and a TGI [9] greater than 100 µM. It also gave a TGI [10] greater than 100 µM, a TGI [11] greater than 100 µM and a TGI [12] greater than 100 µM. The TGI [13] was greater than 100 µM, the TGI [48] was greater than 100 µM and the TGI [14] was greater than 100 µM. The TGI [15] was greater than 100 µM, the TGI [16] was greater than 100 µM and the TGI [49] was greater than 100 µM. The TGI [50] was greater than 100 µM, the TGI [51] was greater than 100 µM and the TGI [52] was greater than 100 µM. For the same compound, the TGI [17] was greater than 100 µM, the TGI [18] was greater than 100 µM and the TGI [19] was greater than 100 µM. For the same compound, the TGI [20] was greater than 100 µM, the TGI [21] was greater than 100 µM and the TGI [53] was greater than 100 µM. For the same compound, the TGI [22] was greater than 100 µM, the TGI [23] was greater than 100 µM and the TGI [24] was greater than 100 µM. For the same compound, the TGI [25] was greater than 100 µM, the TGI [26] was greater than 100 µM and the TGI [27] was greater than 100 µM. It also gave a TGI [28] greater than 100 µM, a TGI [29] greater than 100 µM and a TGI [30] greater than 100 µM. For the same compound, the TGI [32] was greater than 100 µM, the TGI [54] was greater than 100 µM and the TGI [33] was greater than 100 µM. For the same compound, the TGI [34] was greater than 100 µM, the TGI [55] was greater than 100 µM and the TGI [35] was greater than 100 µM. It also gave a TGI [36] greater than 100 µM, a TGI [56] greater than 100 µM and a TGI [37] greater than 100 µM. For the same compound, the TGI [38] was greater than 100 µM, the TGI [40] was greater than 100 µM and the TGI [57] was greater than 100 µM. It also gave a TGI [41] greater than 100 µM, a TGI [42] greater than 100 µM and a TGI [44] greater than 100 µM. The TGI [45] was greater than 100 µM and the TGI [46] was greater than 100 µM.
